Experiment [1] concerns Tel22 (DNA, G4) AGGGTTAGGGTTAGGGTTAGGG
Description: SPR steady state, two-site fit. The note with it: 50 mM KCl; 10 mM HEPES, 3 mM EDTA, pH 7.3; site 1 of 2.

The subject of experiment [2] is AATT hairpin duplex (DNA, hairpin) CGAATTCGTTTTCGAATTCG
As to the kind of experiment: UV thermal melting, 260 nm. The following applies: 50 mM KCl, 10 mM TRIS, 3 mM EDTA, pH 7.3.

Experiment [3] has the same test system. Description: SPR steady state. The note with it: 50 mM KCl, 10 mM HEPES, 3 mM EDTA, pH 7.3.
Experiment [4] has as its system cMYC19 (DNA, G4) AGGGTGGGGAGGGTGGGGA
Description: SPR steady state, two-site fit. The note with it: 50 mM KCl; 10 mM HEPES, 3 mM EDTA, pH 7.3; site 1 of 2.

The subject of experiment [5] is Tel22 (DNA, G4) AGGGTTAGGGTTAGGGTTAGGG
As to the kind of experiment: UV thermal melting, 295 nm. The following applies: 50 mM KCl, 10 mM TRIS, 3 mM EDTA, pH 7.3.

Experiment [6] concerns MYC22 (DNA, G4) TGAGGGTGGGGAGGGTGGGGAA
As to the kind of experiment: 1H NMR imino proton titration. The following applies: 20 mM potassium phosphate; pH 6.02, 35 °C, 100 µM; 3'-end tetrad first, then 5'-end tetrad.

Experiment [7] concerns cMYC19 (DNA, G4) AGGGTGGGGAGGGTGGGGA
As to the kind of experiment: SPR. The following applies: 50 mM KCl; 10 mM HEPES, 3 mM EDTA, pH 7.3; ligand range 10 nM–10 µM.

Experiment [8] deals with Tel22 (DNA, G4) AGGGTTAGGGTTAGGGTTAGGG
Description: SPR. The note with it: 50 mM KCl; 10 mM HEPES, 3 mM EDTA, pH 7.3; ligand range 10 nM–10 µM.

For experiment [9], the system named is AATT hairpin duplex (DNA, hairpin) CGAATTCGTTTTCGAATTCG
As to the kind of experiment: SPR. The note with it: 50 mM KCl; 10 mM HEPES, 3 mM EDTA, pH 7.3; ligand range 10 nM–10 µM.

Where only a bound is given, the exact number is not on record here.

Take `CC1(C)C(/C=C/C=C2/N(CCC[N+](C)(C)C)c3ccc(C(=O)O)cc3C2(C)C)=[N+](CCC[N+](C)(C)C)c2ccc(C(=O)O)cc21`: the K1 was 830000 M⁻¹ in experiment [1], < 10^5 M^−1 in experiment [3] and 5e+06 M⁻¹ in experiment [4]. Also, in experiment [2] (drug:DNA 6:1), the “∆Tm” value was 3 °C.
With `CC1(C)C(/C=C/C=C2/N(CCC[N+](C)(C)C)c3ccc(S(=O)(=O)O)cc3C2(C)C)=[N+](CCC[N+](C)(C)C)c2ccc(S(=O)(=O)O)cc21`, the K1 was 820000 M⁻¹ in experiment [1], < 10^5 M^−1 in experiment [3] and 570000 M⁻¹ in experiment [4]. Besides, the “∆Tm” value in [5] (drug:DNA 6:1) was found to be 1 °C.
Consider `CC1(C)C(/C=C/C=C2/N(CCC[N+](C)(C)C)c3ccc(Br)cc3C2(C)C)=[N+](CCC[N+](C)(C)C)c2ccc(Br)cc21`, for which the K1 in experiment [1] was 5.5e+06 M⁻¹; in [3] (up to 1 µM), < 10^5 M^−1; in experiment [4], 1.2e+07 M⁻¹. Further, the “∆Tm” value in [2] (drug:DNA 6:1, DNA 3 µM) is 0 °C; in experiment [5] (drug:DNA 6:1, DNA 3 µM) it was 24 °C. The binding entry in experiment [6] is “yes”.
As to `CC1(C)C(/C=C/C=C2/N(CCC[N+](C)(C)C)c3ccc(Cl)cc3C2(C)C)=[N+](CCC[N+](C)(C)C)c2ccc(Cl)cc21`, the K1 in [1] was 2.7e+06 M⁻¹; in experiment [3] it was < 10^5 M^−1; in experiment [4] it was 8.4e+06 M⁻¹. The “∆Tm” value in experiment [5] (drug:DNA 6:1) stood at 19 °C.
Take `CC1(C)C(/C=C/C=C2/N(CCC[N+](C)(C)C)c3ccc(F)cc3C2(C)C)=[N+](CCC[N+](C)(C)C)c2ccc(F)cc21`: the results for the K1 in experiment [1], in experiment [3] and in experiment [4] were 5.9e+06 M⁻¹, < 10^5 M^−1 and 6.3e+06 M⁻¹, respectively.
Regarding `CC1(C)C(/C=C/C=C2/N(CCCc3ccccc3)c3ccccc3C2(C)C)=[N+](CCCc2ccccc2)c2ccccc21`, the K1 in experiment [1] was 130000 M⁻¹; in [3], < 10^5 M^−1; in experiment [4], 1.2e+06 M⁻¹. Besides, the “∆Tm” value in experiment [5] (drug:DNA 6:1) was 11 °C.
Turning to `CCCCN1/C(=C/C=C/C2=[N+](CCCC)c3ccccc3C2(C)C)C(C)(C)c2ccccc21`, the binding entry in experiment [7], in experiment [8] and in experiment [9] was “no” throughout. Moreover, in experiment [5] (drug:DNA 6:1), the “∆Tm” value turned out to be 0 °C.
For `CC1(C)C(/C=C/C=C2/N(CCC[N+](C)(C)C)c3ccc(I)cc3C2(C)C)=[N+](CCC[N+](C)(C)C)c2ccc(I)cc21`, the results for the K1 in experiment [1], in [3] and in experiment [4] were 2.1e+06 M⁻¹, < 10^5 M^−1 and 7.8e+06 M⁻¹, respectively. Moreover, the results for the “∆Tm” value in experiment [2] (drug:DNA 6:1) and in [5] (drug:DNA 6:1) were 3 °C and 21 °C, respectively.
For the compound `CC1(C)C(/C=C/C=C2/N(CCC[N+](C)(C)C)c3ccccc3C2(C)C)=[N+](CCC[N+](C)(C)C)c2ccccc21`, the K1 in experiment [1] is 390000 M⁻¹; in experiment [3] (up to 10 µM), < 10^5 M^−1; in [4], 3.8e+06 M⁻¹. The entries for the “∆Tm” value in experiment [2] (drug:DNA 6:1) and in experiment [5] (drug:DNA 6:1) were 2 °C and 14 °C, respectively. Besides, the binding entry in experiment [6] is listed as “yes”.

Source of the values: paper PMC4457452 (2013).
